Laboratory results as given in ChEMBL document CHEMBL3856226, “N-(2-Alkyleneimino-3-phenylpropyl)acetamide Compounds and Their Use against Pain and Pruritus via Inhibition of TRPA1 Channels” (ACS Med Chem Lett, 2016).
pIC50: −log10 of the molar value.

Target: Transient receptor potential cation channel subfamily A member 1 (Homo sapiens, UniProt O75762)
Assay: Inhibition of cinnamaldehyde-activated full length human TRPA1 channel expressed in 293T-Rex cells monitored at 5 sec interval by manual patch clamp electrophysiological method
Type: cell-based

Sequence of Transient receptor potential cation channel subfamily A member 1 (O75762 whole entry): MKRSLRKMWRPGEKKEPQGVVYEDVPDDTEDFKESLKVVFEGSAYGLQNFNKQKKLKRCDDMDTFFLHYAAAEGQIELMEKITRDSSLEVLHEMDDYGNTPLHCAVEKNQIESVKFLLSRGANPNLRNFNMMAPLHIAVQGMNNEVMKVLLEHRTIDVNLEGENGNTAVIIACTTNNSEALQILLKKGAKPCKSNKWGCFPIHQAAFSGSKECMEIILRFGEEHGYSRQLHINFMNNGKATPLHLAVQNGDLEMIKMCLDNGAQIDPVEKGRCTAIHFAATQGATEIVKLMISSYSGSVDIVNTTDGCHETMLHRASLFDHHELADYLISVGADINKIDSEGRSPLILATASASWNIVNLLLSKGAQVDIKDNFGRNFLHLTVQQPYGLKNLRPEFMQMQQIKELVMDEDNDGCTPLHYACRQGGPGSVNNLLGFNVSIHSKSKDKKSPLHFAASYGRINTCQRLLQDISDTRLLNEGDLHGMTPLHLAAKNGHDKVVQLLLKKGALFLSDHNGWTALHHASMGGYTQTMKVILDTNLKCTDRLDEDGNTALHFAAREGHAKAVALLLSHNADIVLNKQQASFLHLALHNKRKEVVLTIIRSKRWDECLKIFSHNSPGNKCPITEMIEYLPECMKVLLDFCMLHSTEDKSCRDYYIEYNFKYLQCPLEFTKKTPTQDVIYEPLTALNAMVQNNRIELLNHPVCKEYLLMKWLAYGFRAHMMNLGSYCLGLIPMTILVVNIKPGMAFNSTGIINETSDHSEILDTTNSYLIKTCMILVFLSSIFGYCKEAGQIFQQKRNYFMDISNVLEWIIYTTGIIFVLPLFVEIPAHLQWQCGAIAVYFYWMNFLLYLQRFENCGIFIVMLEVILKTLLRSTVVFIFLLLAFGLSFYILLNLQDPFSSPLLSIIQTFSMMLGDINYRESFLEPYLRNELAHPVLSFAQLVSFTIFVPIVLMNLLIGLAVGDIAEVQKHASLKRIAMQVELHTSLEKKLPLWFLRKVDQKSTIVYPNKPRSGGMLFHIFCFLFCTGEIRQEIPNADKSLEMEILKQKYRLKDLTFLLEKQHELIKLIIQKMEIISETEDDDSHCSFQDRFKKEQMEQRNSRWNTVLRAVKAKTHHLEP

SMILES	pIC50
O=C(NCC(Cc1ccc(F)cc1)N1CCC(O)(C(F)(F)F)CC1)C1(c2ccc(Cl)cc2)CC1 (stereo not drawn)	8.70
CC(C)(C(=O)NCC(Cc1ccccc1)N1CCC(O)(C(F)(F)F)CC1)c1ccccc1 (stereo not drawn)	7.37
O=C(NCC(Cc1ccccc1)N1CCC(O)(C(F)(F)F)CC1)C1(c2ccc(Cl)cc2)CCCC1 (stereo not drawn)	9.00
O=C(NCC(Cc1ccccc1)N1CCC(O)(C(F)(F)F)CC1)C1(c2ccc(Cl)cc2)CC1 (stereo not drawn)	7.85
O=C(NCC(Cc1ccccc1)N1CCC(O)(C(F)(F)F)CC1)C1(c2ccc(F)cc2)CCCCC1 (stereo not drawn)	8.40
O=C(NCC(Cc1ccc(Br)cc1)N1CCC(O)(C(F)(F)F)CC1)C1(c2ccc(Cl)cc2)CCCC1 (stereo not drawn)	7.92
O=C(NCC(Cc1ccccc1)N1CCC(C(F)(F)F)CC1)C1(c2ccc(Cl)cc2)CCCC1 (stereo not drawn)	8.15
N#Cc1ccc(CC(CNC(=O)C2(c3ccc(Cl)cc3)CCCC2)N2CCC(O)(C(F)(F)F)CC2)cc1 (stereo not drawn)	7.20
